Results reported in publication PMC12663137 (Nature Communications, 2025).
Where “and” joins values, the source holds several entries; their conditions need not be identical. Identical values can stand only once.

Experiments:
[1] = molecular target: T1, SV2A (Homo sapiens, UniProt Q7L0J3); assay: Steady-state (saturation) binding of 3H-UCB-J with 30 µM UCB1244283 or 1% DMSO (Fig. 4A)
T1 construct: expressed in transfected cells; host or cells: HEK293 (ATCC CRL-1573), crude membranes
Protocol: (§1) Ligand binding studies were carried out using crude membranes prepared from HEK293 cells (ATCC, CRL-1573) overexpressing mVenus-SV2AWT or SV2AEM. Membranes were prepared either from transiently transfected cells or from baculovirus-infected cells as described previously. Cells were washed with DPBS (Ca^2+ and Mg^2+ free), followed by resuspending in cold SH buffer (10 mM HEPES-Tris pH 7.4, 320 mM sucrose) containing protease inhibitor cocktail (MedChemExpress) to a density of 10^7 cells/ml. This cell suspension was homogenized by passing through a bead homogenizer (Isobiotec) with 10-micron clearance bead on ice. The lysate was then centrifuged at 4000 × g for 5 min at 4 °C, and the supernatant was aliquoted, frozen in liquid nitrogen, and stored at −80 °C. The mVenus fluorescence estimated using fluorescence size-exclusion chromatography (FSEC) was used to normalize expression levels of mVenus-SV2A mutants studied as detailed previously. For all binding studies, membranes containing […] protein (estimated by BCA method) per reaction were used.
(§2) An equal volume of dimethyl sulfoxide (DMSO) was added to control reactions. Reactions were arrested after 2 h by trapping the membranes on a Unifilter-GF/C 96-well filter plate pre-soaked with 0.1%(w/v) polyethyleneimine. Membranes were washed four times with 0.2 ml of cold binding buffer, dried, and 40 µl of scintillation liquid was added to each well. Radioactivity was monitored in MicroBeta2 plate counter. Residual binding observed in presence of either 10 µM ^1H-UCB-J or 10 µM ^1H-padsevonil was considered as background and subtracted from total binding. Estimates for Kd and Bmax were obtained by fitting the data to one site-specific binding curve using GraphPad Prism 10.

[2] = molecular target: T2, SV2A WT and mutants (Homo sapiens, UniProt Q7L0J3, L655A); assay: Modulatory effect of 30 µM UCB1244283 on 3H-UCB-J binding, effect of mutations (Fig. 4D); conditions: L655A
T2 construct: expressed in transfected cells; host or cells: HEK293 (ATCC CRL-1573), crude membranes
T2 sequence (Q7L0J3 whole entry L655A): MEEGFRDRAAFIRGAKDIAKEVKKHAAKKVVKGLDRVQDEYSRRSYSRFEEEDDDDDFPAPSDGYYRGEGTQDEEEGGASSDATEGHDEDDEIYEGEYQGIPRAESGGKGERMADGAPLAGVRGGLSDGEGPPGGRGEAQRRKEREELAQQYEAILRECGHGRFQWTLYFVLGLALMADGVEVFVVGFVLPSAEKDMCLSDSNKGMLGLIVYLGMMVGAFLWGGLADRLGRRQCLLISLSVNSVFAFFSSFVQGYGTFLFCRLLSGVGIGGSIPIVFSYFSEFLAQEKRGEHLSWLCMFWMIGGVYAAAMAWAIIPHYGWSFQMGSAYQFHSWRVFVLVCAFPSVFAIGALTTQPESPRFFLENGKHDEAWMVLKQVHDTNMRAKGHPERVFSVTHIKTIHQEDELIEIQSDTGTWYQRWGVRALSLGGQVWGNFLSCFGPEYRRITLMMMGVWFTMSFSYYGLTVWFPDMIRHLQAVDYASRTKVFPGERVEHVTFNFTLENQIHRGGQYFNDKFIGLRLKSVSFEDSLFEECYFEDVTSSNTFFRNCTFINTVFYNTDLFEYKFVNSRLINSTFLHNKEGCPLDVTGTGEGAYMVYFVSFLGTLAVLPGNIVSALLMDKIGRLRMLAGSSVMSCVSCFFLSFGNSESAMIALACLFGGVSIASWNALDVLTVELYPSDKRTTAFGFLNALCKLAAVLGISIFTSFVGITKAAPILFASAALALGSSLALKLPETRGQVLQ
Protocol: (§3) Data are shown as mean ± s.d.; n = 6 biological replicates. […] Data are shown as mean ± s.d.; n = 6 biological replicates. […] Residual binding observed at 70 min was defined as 0%. For WT, data are shown as mean ± s.d. […] For the DMSO group, data are shown as mean ± s.d. (n = 4 biological replicates); for the other groups, data are shown as mean (n = 2). Source data for (A, D, E, F) are provided as a Source data file.
as §1, §2

[3] = molecular target: T3, SV2A WT and mutants (Homo sapiens, UniProt Q7L0J3, L655Q); assay: as above; conditions: L655Q
T3 construct: expressed in transfected cells; host or cells: HEK293 (ATCC CRL-1573), crude membranes
T3 sequence (Q7L0J3 whole entry L655Q): as the sequence (Q7L0J3 whole entry L655A) above, with A655Q counted along it
Protocol: as §3, §1, §2

[4] = molecular target: T4, SV2A WT and mutants (Homo sapiens, UniProt Q7L0J3, M301A); assay: as above; conditions: M301A; 30 µM; enhancement in SV2AWT defined as 100%
T4 construct: expressed in transfected cells; host or cells: HEK293 (ATCC CRL-1573), crude membranes
T4 sequence (Q7L0J3 whole entry M301A): as the sequence (Q7L0J3 whole entry L655A) above, with M301A, A655L counted along it
Protocol: as §3, §1, §2

[5] = tested on: SV2A WT and mutants; assay: as above; set-up: species or system human; conditions: Phe188, Tyr461 or Ser601 mutated to alanine
Protocol: as §3, §1, §2

[6] = molecular target: T5, SV2AEM WT or SV2AEM F188A (Homo sapiens, UniProt Q7L0J3); assay: Dissociation kinetics of 3H-UCB-J (Fig. 4E); type: binding; conditions: WT
T5 construct: expressed in transfected cells; host or cells: HEK293 (ATCC CRL-1573), crude membranes
T5 sequence (Q7L0J3 141-742 F188A): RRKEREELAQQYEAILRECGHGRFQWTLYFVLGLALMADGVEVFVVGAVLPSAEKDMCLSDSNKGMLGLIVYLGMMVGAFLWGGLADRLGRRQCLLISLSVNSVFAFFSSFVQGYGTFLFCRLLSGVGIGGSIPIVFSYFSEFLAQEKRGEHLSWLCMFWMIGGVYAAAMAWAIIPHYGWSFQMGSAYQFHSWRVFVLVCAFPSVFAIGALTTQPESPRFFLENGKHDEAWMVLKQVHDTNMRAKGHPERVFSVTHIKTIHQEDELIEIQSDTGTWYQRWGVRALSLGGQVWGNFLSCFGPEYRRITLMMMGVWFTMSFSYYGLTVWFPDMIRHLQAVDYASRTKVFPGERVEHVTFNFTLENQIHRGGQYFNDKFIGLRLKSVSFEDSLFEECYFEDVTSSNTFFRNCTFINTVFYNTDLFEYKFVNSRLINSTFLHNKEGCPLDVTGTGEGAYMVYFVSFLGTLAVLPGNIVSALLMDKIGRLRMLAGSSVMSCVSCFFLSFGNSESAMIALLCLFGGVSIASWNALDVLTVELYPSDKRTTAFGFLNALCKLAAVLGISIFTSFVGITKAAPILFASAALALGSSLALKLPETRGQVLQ
Protocol: as §1
(§4) After 2 h of incubation, ligand dissociation was initiated with 0.3 µM ^1H-UCB-J and radioactivity was monitored at indicated time points by trapping equal volume of membranes on PEI-treated Unifilter-GF/C 96-well filter plates. Dissociation half-life (t1/2) estimates were obtained by fitting the data to one-phase exponential decay using GraphPad Prism 10.

[7] = molecular target: T6, SV2AEM WT or SV2AEM F188A (Homo sapiens, UniProt Q7L0J3, F188A); assay: Dissociation kinetics of 3H-UCB-J (Fig. 4E); type: binding; conditions: F188A
T6 construct: expressed in transfected cells; host or cells: HEK293 (ATCC CRL-1573), crude membranes
T6 sequence (Q7L0J3 141-742 F188A): as above
Protocol: as §1, §4

[8] = molecular target: T1, SV2A; assay: Reduction of 3H-padsevonil (50 nM) binding by UCB1244283 (Fig. 5F); conditions: for 3H-Padsevonil binding (%): no UCB1244283 = 100%
Protocol: Binding observed with SV2AWT was defined as 100%. Data are shown as mean ± s.d.; n = 6 biological replicates. […] Data are shown as mean ± s.d.; n = 6 biological replicates. Significance values were obtained from ordinary one-way ANOVA test (n.s. not significant; **p-value = 0.0064; ****p-value < 0.0001). Source data for (C, F) are provided as a Source data file.
as §1

[9] = Solubility remark (cryo-EM sample preparation); type: physicochemical; conditions: concentration could not be increased further
Source text: convulsions (Daniels V, Wood M, Leclercq K, Kaminski RM, Gillard M. Modulation of the conformational state of the SV2A protein by an allosteric mechanism as evidenced by ligand binding assays. Br J Pharmacol. 2013 […]
understanding of how USC1244283 modulates the binding of antiseizure drugs to SV2A, the cryo-EM structure of an SV2A-UCB1244283 complex should be determined. […]
allosteric site or also the primary binding site? Are there conformational changes without BRV or UCB-J […]
In our original submission, we mentioned our unsuccessful attempt to determine the structure of the SV2A– […]
These observations are consistent with the allosteric site not being well formed (i.e., very low aƯinity) in unliganded SV2A; orthosteric ligand binding induces the formation of the allosteric site (increased aƯinity).
We have expanded the text to make these points clearer. […]
endogenous substrate is bound to the transporter, or from other oƯ-target eƯects.
- Like reported for BRV in the above-mentioned preprint, UCB1244283 prevents dissociation of UCB-J by blocking the luminal gate. […] I think such […]
experiments are important to obtain further insights into the action of UCB1244283. […]
the orthosteric site and the vesicular lumen. […]
accessing the orthosteric site, and we have included additional discussion in the revision.
(1 picture or pasted object on this page, not shown here)

T1 sequence (Q7L0J3 whole entry): as the sequence (Q7L0J3 whole entry L655A) above, with A655L counted along it

3H-UCB-J Binding (f.mol/assay) ([1]; 3H-UCB-J 0.78 nM): 6 f.mol/assay and 7 f.mol/assay
allosteric modulation of 3H-UCB-J binding [2]: did not impair modulation
allosteric modulation of 3H-UCB-J binding [3]: abolished allosteric modulation
allosteric potentiation of 3H-UCB-J binding [5]: loss of allosteric potentiation
3H-UCB-J Binding (%) ([6]; 30 µM UCB1244283, 0 min): 159.90% and 202.86% and 206.18%
3H-UCB-J Binding (%) ([6]; 30 µM UCB1244283, 4 min): 62.83% and 91.12% and 108.82%
3H-UCB-J Binding (%) ([6]; 30 µM UCB1244283, 5 min): 85.26% and 105.06% and 94.83%
3H-UCB-J Binding (%) ([6]; 30 µM UCB1244283, 6 min): 84.91% and 66.93% and 87.39%
3H-UCB-J Binding (%) ([6]; 30 µM UCB1244283, 7 min): 43.33% and 65.94% and 53.85%
3H-UCB-J Binding (%) ([6]; 30 µM UCB1244283, 8 min): 39.38% and 72.33% and 39.29%
3H-UCB-J Binding (%) ([6]; 30 µM UCB1244283, 9 min): 42.32% and 69.81% and 52.93%
3H-UCB-J Binding (%) ([6]; 30 µM UCB1244283, 10 min): 57.05% and 78.11% and 55.34%
3H-UCB-J Binding (%) ([6]; 30 µM UCB1244283, 20 min): 16.75% and 27.97% and 21.29%
3H-UCB-J Binding (%) ([6]; 30 µM UCB1244283, 25 min): 30.01% and 19.16% and 35.10%
3H-UCB-J Binding (%) ([6]; 30 µM UCB1244283, 50 min): 2.00% and 8.63% and 4.06%
3H-UCB-J Binding (%) ([6]; 30 µM UCB1244283, 60 min): 0.00%
3H-UCB-J Binding (%) ([6]; 30 µM UCB1244283, 70 min): 13.54% and 8.21%
3H-UCB-J Binding (%) ([7]; 30 µM UCB1244283, 0 min): 110.44% and 123.64%
3H-UCB-J Binding (%) ([7]; 30 µM UCB1244283, 4 min): 30.89% and 37.36%
3H-UCB-J Binding (%) ([7]; 30 µM UCB1244283, 7 min): 29.68% and 19.59%
3H-UCB-J Binding (%) ([7]; 30 µM UCB1244283, 8 min): 17.69% and 24.42%
3H-UCB-J Binding (%) ([7]; 30 µM UCB1244283, 9 min): 11.91% and 16.05%
3H-UCB-J Binding (%) ([7]; 30 µM UCB1244283, 10 min): 2.24% and 11.65%
3H-UCB-J Binding (%) ([7]; 30 µM UCB1244283, 15 min): -0.26% and 9.40%
3H-UCB-J Binding (%) ([7]; 30 µM UCB1244283, 25 min): -3.97% and 3.97%
3H-UCB-J Binding (%) ([7]; 30 µM UCB1244283, 30 min): -0.60% and 3.19%
3H-UCB-J Binding (%) ([7]; 30 µM UCB1244283, 40 min): 2.93% and 0.35%
3H-UCB-J Binding (%) ([7]; 30 µM UCB1244283, 50 min): 6.38% and 7.42%
3H-UCB-J Binding (%) ([7]; 30 µM UCB1244283, 60 min): 10.53% and 0.69%
3H-UCB-J Binding (%) ([7]; 30 µM UCB1244283, 70 min): 5.09% and -0.95%
solubility [9]: poor solubility
Compound: COc1ccccc1NC(=O)CC(C)Cc1cc(C)cc(C)c1 (centres unmarked) [UCB1244283]
3H-UCB-J Binding (f.mol/assay) ([1]; 3H-UCB-J 1.56 nM): 11 f.mol/assay and 8 f.mol/assay and 10 f.mol/assay and 13 f.mol/assay and 14 f.mol/assay
3H-UCB-J Binding (f.mol/assay) ([1]; 3H-UCB-J 6.25 nM): 35 f.mol/assay and 45 f.mol/assay and 39 f.mol/assay and 44 f.mol/assay and 54 f.mol/assay
3H-UCB-J Binding (f.mol/assay) ([1]; 3H-UCB-J 12.50 nM): 66 f.mol/assay and 56 f.mol/assay and 69 f.mol/assay and 73 f.mol/assay and 70 f.mol/assay and 60 f.mol/assay
3H-UCB-J Binding (f.mol/assay) ([1]; 3H-UCB-J 25.00 nM): 90 f.mol/assay and 106 f.mol/assay and 118 f.mol/assay and 84 f.mol/assay and 111 f.mol/assay
3H-UCB-J Binding (f.mol/assay) ([1]; 3H-UCB-J 50.00 nM): 82 f.mol/assay and 91 f.mol/assay and 128 f.mol/assay and 130 f.mol/assay and 116 f.mol/assay and 122 f.mol/assay
3H-UCB-J Binding (f.mol/assay) ([1]; 3H-UCB-J 100.00 nM): 104 f.mol/assay and 70 f.mol/assay and 121 f.mol/assay and 105 f.mol/assay and 88 f.mol/assay and 115 f.mol/assay
UCB1244283 modulation (%) [4]: 204.26% and 178.72% and 164.89% and 193.57% and 161.39% and 224.53% and 226.42%
displacement of padsevonil from SV2A [8]: can displace padsevonil from SV2A in a dose-dependent manner
3H-Padsevonil binding (%) ([8]; UCB1244283 10 μM): 91.0284% and 102.553% and 101.386% and 86.5062% and 91.3202%
3H-Padsevonil binding (%) ([8]; UCB1244283 30 μM): 87.2356% and 88.6944% and 95.6966% and 92.1955% and 71.6265% and 83.5886%
3H-Padsevonil binding (%) ([8]; UCB1244283 50 μM): 81.1087% and 81.984% and 86.5062% and 85.6309% and 65.7914% and 73.0853%
3H-Padsevonil binding (%) ([8]; UCB1244283 100 μM): 69.7301% and 72.0642% and 78.9205% and 76.5864% and 67.5419%
3H-Padsevonil binding (%) ([8]; UCB1244283 500 μM): 70.4595% and 69.4384% and 72.6477% and 70.0219% and 59.2268% and 71.4807%
